From ChEMBL document CHEMBL3351986, “Probing linker design in citric acid-ciprofloxacin conjugates” (2014)
≈ marks a conversion by molar mass, not a printed value. Calls of active or inactive are those of the source. The rule behind the calls is not given here.

test system: Staphylococcus epidermidis; test: Ratio of compound MIC to ciprofloxacin MIC for Staphylococcus epidermidis NCTC 11047 after 18 hrs by micro dilution method; assay type: functional; details: not given

Structure (SMILES) | Ratio
O=C(O)CC(O)(CC(=O)NCC(=O)N1CCN(c2cc3c(cc2F)c(=O)c(C(=O)O)cn3C2CC2)CC1)C(=O)O (racemic) | 75.3

test system: Pseudomonas aeruginosa; test: Antimicrobial activity against Pseudomonas aeruginosa NCTC 10662 after 18 hrs by micro dilution method; assay type: functional; details: NCTC 10662, 18 h

MIC [µg/mL] | Structure (SMILES)
2 (≈ 3.56 µM) | O=C(O)CC(O)(CC(=O)NCC(=O)N1CCN(c2cc3c(cc2F)c(=O)c(C(=O)O)cn3C2CC2)CC1)C(=O)O (racemic)

test system: Escherichia coli; test: Ratio of compound MIC to ciprofloxacin MIC for Escherichia coli NCTC 10418 after 18 hrs by micro dilution method; assay type: functional; details: not given

Structure (SMILES) | Ratio
O=C(O)CC(O)(CC(=O)NCC(=O)N1CCN(c2cc3c(cc2F)c(=O)c(C(=O)O)cn3C2CC2)CC1)C(=O)O (racemic) | 1.23

test system: Burkholderia cepacia; test: Antimicrobial activity against Burkholderia cepacia BIG 117 after 18 hrs by micro dilution method; assay type: functional; details: BIG 117, 18 h

MIC [µg/mL] | Structure (SMILES)
8 (≈ 14.2 µM) | O=C(O)CC(O)(CC(=O)NCC(=O)N1CCN(c2cc3c(cc2F)c(=O)c(C(=O)O)cn3C2CC2)CC1)C(=O)O (racemic)

test system: Stenotrophomonas maltophilia; test: Antimicrobial activity against Stenotrophomonas maltophilia N1127 after 18 hrs by micro dilution method; assay type: functional; details: N1127, 18 h

MIC [µg/mL] | Structure (SMILES)
32 (≈ 56.9 µM) | O=C(O)CC(O)(CC(=O)NCC(=O)N1CCN(c2cc3c(cc2F)c(=O)c(C(=O)O)cn3C2CC2)CC1)C(=O)O (racemic)

test system: Staphylococcus epidermidis; test: Ratio of compound MIC to ciprofloxacin MIC for Staphylococcus epidermidis NCTC 2749 after 18 hrs by micro dilution method; assay type: functional; details: not given

Structure (SMILES) | Ratio
O=C(O)CC(O)(CC(=O)NCC(=O)N1CCN(c2cc3c(cc2F)c(=O)c(C(=O)O)cn3C2CC2)CC1)C(=O)O (racemic) | 18.8

test system: Staphylococcus aureus; test: Ratio of compound MIC to ciprofloxacin MIC for Staphylococcus aureus (Oxford) NCTC 6571 after 18 hrs by micro dilution method; assay type: functional; details: not given

Structure (SMILES) | Ratio
O=C(O)CC(O)(CC(=O)NCC(=O)N1CCN(c2cc3c(cc2F)c(=O)c(C(=O)O)cn3C2CC2)CC1)C(=O)O (racemic) | 37.6

test system: Pseudomonas aeruginosa; test: Ratio of compound MIC to ciprofloxacin MIC for Pseudomonas aeruginosa NCTC 10662 after 18 hrs by micro dilution method; assay type: functional; details: not given

Structure (SMILES) | Ratio
O=C(O)CC(O)(CC(=O)NCC(=O)N1CCN(c2cc3c(cc2F)c(=O)c(C(=O)O)cn3C2CC2)CC1)C(=O)O (racemic) | 4.72

test system: Stenotrophomonas maltophilia; test: Antimicrobial activity against Stenotrophomonas maltophilia N1119 after 18 hrs by micro dilution method; assay type: functional; details: N1119, 18 h

MIC [µg/mL] | Structure (SMILES)
> 36 | O=C(O)CC(O)(CC(=O)NCC(=O)N1CCN(c2cc3c(cc2F)c(=O)c(C(=O)O)cn3C2CC2)CC1)C(=O)O (racemic)

test system: Pseudomonas aeruginosa; test: Ratio of compound MIC to ciprofloxacin MIC for Pseudomonas aeruginosa BIG 63 after 18 hrs by micro dilution method; assay type: functional; details: not given

Structure (SMILES) | Ratio
O=C(O)CC(O)(CC(=O)NCC(=O)N1CCN(c2cc3c(cc2F)c(=O)c(C(=O)O)cn3C2CC2)CC1)C(=O)O (racemic) | 18.8

test system: Staphylococcus epidermidis; test: Antimicrobial activity against Staphylococcus epidermidis NCTC 2749 after 18 hrs by micro dilution method; assay type: functional; details: NCTC 2749, 18 h

MIC [µg/mL] | Structure (SMILES)
8 (≈ 14.2 µM) | O=C(O)CC(O)(CC(=O)NCC(=O)N1CCN(c2cc3c(cc2F)c(=O)c(C(=O)O)cn3C2CC2)CC1)C(=O)O (racemic)

test system: Pseudomonas aeruginosa; test: Antimicrobial activity against Pseudomonas aeruginosa environmental isolate BIG 39 after 18 hrs by micro dilution method; assay type: functional; details: BIG 39, 18 h

MIC [µg/mL] | Structure (SMILES)
2 (≈ 3.56 µM) | O=C(O)CC(O)(CC(=O)NCC(=O)N1CCN(c2cc3c(cc2F)c(=O)c(C(=O)O)cn3C2CC2)CC1)C(=O)O (racemic)

test system: Serratia marcescens; test: Antimicrobial activity against Serratia marcescens BIG 11 NCTC 1377 after 18 hrs by micro dilution method; assay type: functional; details: BIG 11 NCTC 1377, 18 h

MIC [µg/mL] | Structure (SMILES)
0.5 (≈ 0.889 µM) | O=C(O)CC(O)(CC(=O)NCC(=O)N1CCN(c2cc3c(cc2F)c(=O)c(C(=O)O)cn3C2CC2)CC1)C(=O)O (racemic)

test system: Escherichia coli; test: Antimicrobial activity against Escherichia coli NCTC 10418 after 18 hrs by micro dilution method; assay type: functional; details: NCTC 10418, 18 h

MIC [µg/mL] | Structure (SMILES)
0.125 (≈ 0.222 µM) | O=C(O)CC(O)(CC(=O)NCC(=O)N1CCN(c2cc3c(cc2F)c(=O)c(C(=O)O)cn3C2CC2)CC1)C(=O)O (racemic)

test system: not listed separately; test: Inhibition of DNA gyrase (unknown origin) assessed as reduction in supercoiled form of DNA at 20 uM using ethidium bromide staining by gel electrophoresis; details: not given

inhibition | Structure (SMILES)
Active | O=C(O)CC(O)(CC(=O)NCC(=O)N1CCN(c2cc3c(cc2F)c(=O)c(C(=O)O)cn3C2CC2)CC1)C(=O)O (racemic)

test system: Pseudomonas aeruginosa; test: Ratio of compound MIC to ciprofloxacin MIC for Pseudomonas aeruginosa environmental isolate after 18 hrs by micro dilution method; assay type: functional; details: not given

Structure (SMILES) | Ratio
O=C(O)CC(O)(CC(=O)NCC(=O)N1CCN(c2cc3c(cc2F)c(=O)c(C(=O)O)cn3C2CC2)CC1)C(=O)O (racemic) | 4.72

test system: Staphylococcus haemolyticus; test: Antimicrobial activity against Staphylococcus haemolyticus NCTC 11042 after 18 hrs by micro dilution method; assay type: functional; details: NCTC 11042, 18 h

Structure (SMILES) | MIC [µg/mL]
O=C(O)CC(O)(CC(=O)NCC(=O)N1CCN(c2cc3c(cc2F)c(=O)c(C(=O)O)cn3C2CC2)CC1)C(=O)O (racemic) | 16 (≈ 28.4 µM)

test system: Serratia marcescens; test: Ratio of compound MIC to ciprofloxacin MIC for Serratia marcescens BIG 11 NCTC 1377 after 18 hrs by micro dilution method; assay type: functional; details: not given

Structure (SMILES) | Ratio
O=C(O)CC(O)(CC(=O)NCC(=O)N1CCN(c2cc3c(cc2F)c(=O)c(C(=O)O)cn3C2CC2)CC1)C(=O)O (racemic) | 4.91

test system: Burkholderia cepacia; test: Antimicrobial activity against Burkholderia cepacia BIG 118 after 18 hrs by micro dilution method; assay type: functional; details: BIG 118, 18 h

MIC [µg/mL] | Structure (SMILES)
8 (≈ 14.2 µM) | O=C(O)CC(O)(CC(=O)NCC(=O)N1CCN(c2cc3c(cc2F)c(=O)c(C(=O)O)cn3C2CC2)CC1)C(=O)O (racemic)

test system: Staphylococcus aureus; test: Antimicrobial activity against Staphylococcus aureus (Oxford) NCTC 6571 after 18 hrs by micro dilution method; assay type: functional; details: (Oxford) NCTC 6571, 18 h

MIC [µg/mL] | Structure (SMILES)
16 (≈ 28.4 µM) | O=C(O)CC(O)(CC(=O)NCC(=O)N1CCN(c2cc3c(cc2F)c(=O)c(C(=O)O)cn3C2CC2)CC1)C(=O)O (racemic)

test system: Burkholderia cepacia; test: Ratio of compound MIC to ciprofloxacin MIC for Burkholderia cepacia BIG 120 after 18 hrs by micro dilution method; assay type: functional; details: not given

Structure (SMILES) | Ratio
O=C(O)CC(O)(CC(=O)NCC(=O)N1CCN(c2cc3c(cc2F)c(=O)c(C(=O)O)cn3C2CC2)CC1)C(=O)O (racemic) | 9.4

test system: Burkholderia cepacia; test: Antimicrobial activity against Burkholderia cepacia BIG 120 after 18 hrs by micro dilution method; assay type: functional; details: BIG 120, 18 h

MIC [µg/mL] | Structure (SMILES)
32 (≈ 56.9 µM) | O=C(O)CC(O)(CC(=O)NCC(=O)N1CCN(c2cc3c(cc2F)c(=O)c(C(=O)O)cn3C2CC2)CC1)C(=O)O (racemic)
